Laboratory results published in patent US8536187B2 (Gilead Sciences, Inc., priority 2008, dated 2013).

Columns and labels:
[1] = system: HCV replicon in human hepatoma Huh-7 cell line; assay: Anti-HCV replicon assay, EC50 (luciferase luminescence); type: cell-based; details: Hepatitis C virus, Huh-7, 72 h
Experimental: (§1) The anti-HCV activity of the pyrido[3,2-d]pyrimidine derivatives of this invention was tested in a human hepatoma Huh-7 cell line harboring a HCV replicon. The assay comprised the following steps: • Step 1: compound preparation and serial dilution: serial dilution is performed in 50% DMSO in a 384-well plate. A solution containing a compound at 100-fold concentration of the starting final serial dilution concentration was prepared in 50% DMSO and added to the pre-specified wells in column 1 of a polypropylene 384-well plate. The plate was then placed on a Precision 2000 Workstation to start the serial dilution. After the serial dilution, a volume of 2 μL of the solution was transferred from the 384-well plate to a 96-well cell culture plate containing 100 μL of cell media on a Biomek FX Workstation. The DMSO concentration in the final assay condition was 0.5% after cells are added to the plate and the total volume in each well is brought to 200 μL. • Step 2: to each well of the serial dilution plate prepared above, 100 μL of cell media containing 6000 suspended Huh-7 HCV replicon cells was added with a Multidrop workstation. The plates were incubated for 3 days at 37° C. with 5% CO2. • Step 3: detection: • a) for the EC50 assay, the media in a 96-well cell culture plate was aspirated with a Biotek EL405 plate-washer. A volume of 200 μL of a solution containing a 1:1 mixture of cell-lysis buffer (Promega, Luciferase Cell Culture Lysis 5× Reagent, cat. #E1531) and luciferase substrate solution (Promega, Luciferase Assay, cat.# E4550) was added to each well of the plate with Multidrop. The plate was incubated for 30 minutes at room temperature before the luminescence signal was measured with a TopCount plate-reader. • b) for the CC50 assay, a volume of 100 μL of pre-mixed CellTiter-Glo (Promega, cat.# G7572) solution is added directly to the cell culture in each well of the plate and the luminescence signal is measured with a TopCount plate-reader after 10 minutes of incubation at room temperature.

[2] = CC50 assay (CellTiter-Glo) in Huh-7 HCV replicon cells; type: cell-based; details: human
Experimental: as §1

SMILES | EC50 [1] [nM] | CC50 at 3 days ([2]; Table 2, 3 days incubation) [µM] | CC50 at 3 days ([2]; Table 1, 3 days incubation) [µM]
CC(C)(C)Oc1nc(NCc2ccc(-n3cncn3)cc2)nc2ccc(-c3cccc(S(C)(=O)=O)c3)nc12 [Example 197, N-(4-(1H-1,2,4-triazol-1-yl)benzyl)-4-tert-butoxy-6-(3-(methylsulfonyl)phenyl)pyrido [3,2-d]pyrimidin-2-amine] | < 100 | > 10 | –
COCC#Cc1ccc2nc(NCc3cc(Cl)cc(S(N)(=O)=O)c3)nc(NC3(C(F)(F)F)CC3)c2n1 [Example 46, 3-chloro-5-((6-(3-methoxyprop-1-ynyl)-4-(1-(trifluoromethyl)cyclopropyl-amino)pyrido[3,2-d]pyrimidin-2-ylamino)methyl)benzene-sulfonamide] | < 100 | > 10 | –
CCS(=O)(=O)c1cccc(-c2ccc3nc(NCc4ccc(-n5cncn5)cc4)nc(NCC(F)(F)F)c3n2)c1 [Example 181, N^2-(4-(1H-1,2,4-triazol-1-yl)benzyl)-6-(3-(ethylsulfonyl)phenyl)-N^4-(2,2,2-trifluoroethyl)pyrido [3,2-d]pyrimidine-2,4-diamine] | < 100 | > 10 | –
Cc1ccc(-c2ccc3nc(N[C@H](C)c4ccc(S(N)(=O)=O)cc4)nc(NCC(F)(F)F)c3n2)cc1S(C)(=O)=O [Example 152, 4-((R)-1-(6-(4-methyl-3-(methylsulfonyl)phenyl)-4-(2,2,2-trifluoroethylamino)pyrido[3,2-d]pyrimidin-2-ylamino)ethyl)benzene-sulfonamide] | < 100 | > 10 | –
NS(=O)(=O)c1ccc(CNc2nc(NCC(F)(F)F)c3nc(-c4ccc(F)cc4)ccc3n2)cc1F [Example 3, 2-Fluoro-4-{[6-(4-fluoro-phenyl)-4-(2,2,2-trifluoro-ethylamino)-pyrido[3,2-d]pyrimidin-2-ylamino]-methyl}-benzenesulfonamide] | 250 to 2000 | – | > 25
CC[C@@H](Nc1nc(NCC(F)(F)F)c2nc(-c3ccc(OC)c(S(C)(=O)=O)c3)ccc2n1)c1ccc(S(N)(=O)=O)cc1 [Example 154, 4-((R)-1-(6-(4-methoxy-3-(methylsulfonyl)phenyl)-4-(2,2,2-trifluoroethylamino)pyrido[3,2-d]pyrimidin-2-ylamino)propyl)benzene-sulfonamide] | 100 to 250 | > 10 | –
COc1ccc(-c2ccc3nc(NCc4ccc(-n5cncn5)cc4)nc(NCC(F)(F)F)c3n2)cc1S(N)(=O)=O [Example 237, 5-(2-(4-(1H-1,2,4-triazol-1-yl)benzylamino)-4-(2,2,2-trifluoroethylamino)pyrido [3,2-d]pyrimidin-6-yl)-2-methoxybenzenesulfonamide] | < 100 | > 10 | –
CCc1cc(S(N)(=O)=O)ccc1CNc1nc(NC2(C(F)(F)F)CC2)c2nc(-c3ccc(F)cc3)ccc2n1 [Example 68, 3-ethyl-4-((6-(4-fluorophenyl)-4-(1-(trifluoromethyl)cyclo-propylamino)pyrido[3,2-d]pyrimidin-2-ylamino)methyl) benzenesulfonamide] | 250 to 2000 | 1 to 10 | –
COc1ccc(-c2ccc3nc(NCc4ccc(-n5cccn5)cc4)nc(NCC(F)(F)F)c3n2)cc1S(N)(=O)=O [Example 236, 5-(2-(4-(1H-pyrazol-1-yl)benzylamino)-4-(2,2,2-trifluoroethylamino)pyrido [3,2-d]pyrimidin-6-yl)-2-methoxybenzenesulfonamide] | < 100 | 1 to 10 | –
Cc1nccn1-c1cccc(CNc2nc(NC3(C(F)(F)F)CC3)c3nc(-c4ccc(F)cc4)ccc3n2)c1 [Example 53, N^2-(3-(2-methyl-1H-imidazol-1-yl)benzyl)-6-(4-fluorophenyl)-N^4-(1-(trifluoromethyl)cyclopropyl)pyrido[3,2-d] pyrimidine-2,4-diamine] | 250 to 2000 | 1 to 10 | –
CCOc1ccc(-c2ccc3nc(N[C@H]4CCN(C(=O)[C@H](NC(=O)OC)C(C)C)C4)nc(NCC(F)(F)F)c3n2)cc1S(N)(=O)=O [Example 266, methyl (R)-1-((S)-3-(6-(4-ethoxy-3-(aminosulfonyl)phenyl)-4-(2,2,2-trifluoroethylamino)pyrido[3,2-d]pyrimidin-2-ylamino)pyrrolidin-1-yl)-3-methyl-1-oxobutan-2-ylcarbamate] | < 100 | 1 to 10 | –
NS(=O)(=O)c1cccc(CNc2nc(NC3(C(F)(F)F)CCCCC3)c3nc(-c4ccc(F)cc4)ccc3n2)c1 [Example 66, 3-((6-(4-fluorophenyl)-4-(1-(trifluoromethyl)cyclohexylamino)pyrido[3,2-d]pyrimidin-2-ylamino)methyl)benzene-sulfonamide] | 100 to 250 | > 10 | –
COCC#Cc1ccc2nc(NCc3cc(C(F)(F)F)cc(S(N)(=O)=O)c3)nc(NCC(F)(F)F)c2n1 [Example 282, 3-((6-(3-methoxyprop-1-ynyl)-4-(2,2,2-trifluoroethylamino)pyrido[3,2-d]pyrimidin-2-ylamino)methyl)-5-(trifluoro-methyl)benzenesulfonamide] | 250 to 2000 | > 10 | –
COc1ccc(-c2ccc3nc(NCc4ccc(C)c(F)c4)nc(NCC(F)(F)F)c3n2)cc1S(C)(=O)=O [Example 176, N^2-(3-fluoro-4-methylbenzyl)-6-(4-methoxy-3-(methylsulfonyl)phenyl)-N^4-(2,2,2-trifluoroethyl) pyrido[3,2-d]pyrimidine-2,4-diamine] | < 100 | 1 to 10 | –
NS(=O)(=O)c1cc(Cl)cc(CNc2nc(NC3(C(F)(F)F)CC3)c3nc(-c4ccc(N5CNCC5=O)cc4)ccc3n2)c1 [Example 45, 3-chloro-5-((6-(4-(5-oxoimidazolidin-1-yl)phenyl)-4-(1-(trifluoromethyl)cyclopropylamino)pyrido [3,2-d]pyrimidin-2-ylamino)methyl)benzenesulfonamide] | < 100 | 1 to 10 | –
COc1ccc(-c2ccc3nc(NCc4cccc(C(F)(F)F)c4)nc(NC4(C(F)(F)F)CC4)c3n2)cc1S(C)(=O)=O [Example 113, N^2-(3-(trifluoromethyl)benzyl)-6-(4-methoxy-3-(methylsulfonyl)phenyl)-N^4-(1-(trifluoromethyl)cyclopropyl)pyrido[3,2-d] pyrimidine-2,4-diamine] | 100 to 250 | > 10 | –
CC(C)(C)NS(=O)(=O)c1cc(F)cc(CNc2nc(NC3(C(F)(F)F)CC3)c3nc(-c4ccc(Cl)c(S(C)(=O)=O)c4)ccc3n2)c1 [Example 38, N-tert-butyl-3-((6-(4-chloro-3-(methylsulfonyl)phenyl)-4-(1-(trifluoromethyl)cyclopropyl-amino)pyrido[3,2-d]pyrimidin-2-ylamino)methyl)-5-fluorobenzenesulfonamide] | < 100 | > 10 | –
COc1ccc(-c2ccc3nc(NCc4cccc(S(N)(=O)=O)c4)nc(NCC(F)(F)F)c3n2)cc1S(C)(=O)=O [Example 144, 3-((6-(4-methoxy-3-(methylsulfonyl)phenyl)-4-(2,2,2-trifluoroethylamino)pyrido[3,2-d]pyrimidin-2-ylamino)methyl)benzene-sulfonamide] | < 100 | 1 to 10 | –
C#Cc1ccc2nc(NCc3ccc(S(N)(=O)=O)cc3)nc(NCC(F)(F)F)c2n1 [Example 288, 4-((6-ethynyl-4-(2,2,2-trifluoroethylamino)pyrido [3,2-d]pyrimidin-2-ylamino)methyl)benzenesulfonamide] | < 100 | 1 to 10 | –
C#Cc1ccc2nc(NCc3ccc(-n4cncn4)cc3)nc(N[C@@H](C)C(F)(F)F)c2n1 [Example 291, (S)-N^2-(4-(1H-1,2,4-triazol-1-yl)benzyl)-6-ethynyl-N^4-(1,1,1-trifluoropropan-2-yl)pyrido [3,2-d]pyrimidine-2,4-diamine] | < 100 | > 10 | –
C#Cc1ccc2nc(N[C@H](C)c3ccc(S(N)(=O)=O)cc3)nc(OC3CCC3)c2n1 [Example 307, (R)-4-(1-(4-cyclobutoxy-6-ethynylpyrido[3,2-d]pyrimidin-2-ylamino)ethyl)benzene-sulfonamide] | 250 to 2000 | 1 to 10 | –
CS(=O)(=O)c1cc(-c2ccc3nc(NCc4ccc(-n5cncn5)cc4)nc(NCC(F)(F)F)c3n2)ccc1OC(F)F [Example 175, N^2-(4-(1H-1,2,4-triazol-1-yl)benzyl)-6-(4-(difluoro-methoxy)-3-(methylsulfonyl)phenyl)-N^4-(2,2,2-trifluoroethyl) pyrido[3,2-d]pyrimidine-2,4-diamine] | < 100 | > 10 | –
Cc1cc(S(N)(=O)=O)ccc1C(C)Nc1nc(NCC(F)(F)F)c2nc(-c3ccc(F)cc3)ccc2n1 (stereo not shown) [Example 10, 4-{1-[6-(4-Fluoro-phenyl)-4-(2,2,2-trifluoro-ethylamino)-pyrido[3,2-d]pyrimidin-2-ylamino]-ethyl}-3-methyl-benzenesulfonamide] | 100 to 250 | – | < 10
